The source made the active and inactive calls. No cut-off for these calls is given here.
Key:
A-375 [1] = assay: Antitumor activity against human A-375 cells implanted in BALB/c mouse assessed as reduction in tumor weight at 70 mg/kg, ip measured once every two days for 14 days; type: functional, organism-based; conditions: time 14.0 day
A-375 [2] = assay: Antitumor activity against human A-375 cells implanted in BALB/c mouse assessed as tumor growth inhibition at 70 mg/kg, ip measured once every two days for 14 days; type: functional, organism-based; conditions: time 14.0 day
A-375 [3] = assay: Antitumor activity against human A-375 cells implanted in BALB/c mouse assessed as shrinkage of tumor tissue at 70 mg/kg, ip measured once every two days for 14 days; type: functional, organism-based; conditions: time 14.0 day
[4] = Toxicity in BALB/c mouse assessed as change in body weight at 70 mg/kg, iv measured once every two days for 7 days; type: organism-based; conditions: in vivo, 168 h, time 7 day

CN(C)/N=N/c1[nH]cnc1C(N)=O [DACARBAZINE]
Activity (A-375 [1]): Active
Activity (A-375 [2]): Active
Activity (A-375 [3]): Active
Activity [4]: Toxic
